pEC50, pIC50: −log10 of the molar value. Converted amounts (≈) assume the structure as drawn. Like-named read-outs stand apart in the source and are kept apart here.
Key:
RVFV MP-12 = test: microbe, parasite or virus in culture; type: cell-based, Rift Valley fever virus; settings: read-out: Estimated EC50
Staphylo-coccus spp. = test: organism not typed; type: cell-based
C. neoformans = test: microbe, parasite or virus in culture; type: cell-based; settings: for MIC80: Cryptococcus neoformans, read-out: C. neoformans (MIC80, μM)
E. coli = test: microbe, parasite or virus in culture; type: cell-based
Human RNase H1 = biological target: T1, Human RNase H1 (Homo sapiens, UniProt O60930); test: biochemical
T1 construct: made in house; host or cells: E. coli
T1 sequence (O60930 1-286): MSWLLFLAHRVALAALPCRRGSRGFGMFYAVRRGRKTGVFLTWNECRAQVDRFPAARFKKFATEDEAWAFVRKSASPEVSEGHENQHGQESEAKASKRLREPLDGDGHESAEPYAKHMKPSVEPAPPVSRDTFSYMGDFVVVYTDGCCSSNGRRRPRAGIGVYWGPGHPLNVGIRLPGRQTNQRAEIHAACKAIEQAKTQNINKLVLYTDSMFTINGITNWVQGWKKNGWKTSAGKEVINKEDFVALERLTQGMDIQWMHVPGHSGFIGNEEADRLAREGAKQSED

RVFV strain MP-12 [1] = test: microbe, parasite or virus in culture; type: cell-based, Rift Valley fever virus
RVFV strain MP-12 [2] = test: microbe, parasite or virus in culture; type: cell-based, Rift Valley fever virus; settings: read-out: A549 EC50
ZIKV = test: microbe, parasite or virus in culture; type: cell-based, Zika virus; settings: read-out: ZIKV EC50
LACV = test: microbe, parasite or virus in culture; type: cell-based, La Crosse virus; settings: read-out: LACV EC50
in vitro = settings: African green monkey
[3] = read-out: Human RNase H1 (IC50)
[4] = Rift Valley fever virus, A549, 24 h
[5] = La Crosse virus, Vero C1008, 24 h
[6] = Rift Valley fever virus, Vero, 24 h
[7] = Rift Valley fever virus, Vero, read-out: Vero EC50

Structure (SMILES) | pEC50 (RVFV MP-12) | Staphylo-coccus spp. (MIC80, μM) (Staphylo-coccus spp.) [µM] | C. neoformans (MIC80, μM) (C. neoformans) [µM] | pIC50 (Human RNase H1; [3]) | pEC50 (RVFV strain MP-12 [1]; read-out: EC50) | CC50 (HepDES19) [µM] | CC50 (A549 cells) [µM] | pEC50 (RVFV strain MP-12 [2]) | CC50 (Vero cells) [µM] | pEC50 (ZIKV) | pEC50 (LACV) | pEC50 (RVFV strain MP-12 [1]; read-out: Vero EC50) | also measured
Cc1cc(O)c(=O)c(O)cc1C(=O)c1ccccc1O [Compound 311] | 5.50 | 67 | 15 | 4.59 | 4.93 |  |  |  |  |  |  |  | E. coli (MIC80, μM) (E. coli): 30 µM
CC(=O)c1c(C)cc(O)c(=O)c(O)c1Br [Compound 320] | 5.70 |  | 49 | 4.43 | 4.47 | 49.5 | 154 | 4.04 | > 120 | < 3.92 | < 3.92 | 4.47 | 
O=C1C=CC(=O)c2ccccc21 [Compound 327] | 5.70 |  | 9.1 | 4.33 | 4.40 | 18.5 | 27.5 | 4.71 |  | < 3.92 | 4.90 | 4.40 | 
CC(=O)c1c(C)cc(O)c(=O)c(O)c1-c1ccccc1 [Compound 330] | 5.70 | 44 | 4.0 | 3.32 | 4.98 | 56.2 | > 240 | 4.37 | > 120 | 4.49 | < 3.92 | 4.98 | 
CC(=O)c1c(C)cc(O)c(=O)c(O)c1-c1cccc2ccccc12 [Compound 331] | 5.70 | 67 | 11 | 3.35 | 4.80 | 36.6 | > 240 | 4.75 | 80.4 |  |  | 4.80 | 
COC(=O)c1c(C)cc(O)c(=O)c(O)c1Br [Compound 335] | 5.52 |  | 50 | 3.95 | 4.39 |  | 96.2 | < 3.92 | > 120 | < 3.92 | < 3.92 | 4.39 | pEC50 (RVFV strain MP-12 [1]; read-out: RVFV (EC50)): 4.39
Cc1cc(O)c(=O)c(O)cc1C(=O)c1ccc(Br)cc1 [Compound 358] |  |  | 11 | 4.37 |  | 12.5 |  |  | > 120 |  |  |  | E. coli (MIC80, μM) (E. coli): 20 µM; pEC50 (RVFV strain MP-12 [1]; read-out: RVFV (EC50)): 5.05
Cc1cc(O)c(=O)c(O)cc1C(=O)NCc1ccccc1 [Compound 388] | 4.72 | 67 | 11 | 3.78 |  | 19.8 |  |  | > 120 |  |  |  | E. coli (MIC80, μM) (E. coli): 67 µM; pEC50 (RVFV strain MP-12 [1]; read-out: RVFV (EC50)): 5.05
Cc1cc(O)c(=O)c(O)cc1C(=O)N1CCCCC1 [Compound 390] | 7.00 |  | 11 | 3.97 | 4.92 | 29.8 | 224 | 5.03 | > 120 | < 3.92 | < 3.92 | 4.92 | 
CC(=Nc1ccc(C(F)(F)F)cc1)c1c(C)cc(=O)n(O)c1O [Compound 517] | 4.89 |  | 24 | 3.87 |  | 91 | 71.8 | 4.02 | > 120 | < 3.92 | < 3.92 | < 3.92 | 
CCc1cccc(N=C(C)c2c(C)cc(=O)n(O)c2O)c1 [Compound 518] | 5.15 | 67 | 24 | 3.36 | 4.71 | 91.4 | 16.5 | 4.76 | > 120 | < 3.92 | < 3.92 | 4.70 | 
CC(=Nc1ccccc1Cl)c1c(C)cc(=O)n(O)c1O [Compound 668] | 4.96 |  |  | 3.78 | 4.72 | 76.8 | 82 | 4.45 | > 120 | < 3.92 | < 3.92 | 4.72 | 
C/C(=N\c1ccc(Cl)c(Cl)c1)c1c(C)cc(O)n(O)c1=O [Compound 670] |  |  |  |  |  |  |  |  |  |  |  |  | CC50 (in vitro; CC50): > 120 µM; pEC50 (RVFV strain MP-12 [2]; [4]): 4.82; CC50 (Vero cells; African green monkey): > 120 µM; pEC50 (RVFV MP-12; Rift Valley fever virus, Vero): 5.00; pEC50 (ZIKV; Zika virus, Vero C1008, 48 h): < 3.92; pEC50 (LACV; [5]): < 3.92; MIC80 (C. neoformans): 69 µM (≈ 22.6 µg/mL); pIC50 (Human RNase H1): 3.45; pEC50 (RVFV strain MP-12 [1]; [6]): 4.85; pEC50 (RVFV strain MP-12 [1]; [7]): 4.85
CC[C@H](C)[C@H](NC(=O)OCC1c2ccccc2-c2ccccc21)C(=O)Sc1cccccc1=O [Compound 686] | 5.67 | 30 | 0.85 | < 3.30 |  | 42.6 | 67.6 | 5.10 | > 120 | < 3.92 | 4.34 | 5.20 | 
O=c1c(O)cccc(S(=O)(=O)c2cccc3ccccc23)c1O [Compound 698] | 5.10 | 20 | 38 | 3.58 | 4.93 | 13.7 |  |  |  |  |  |  | E. coli (MIC80, μM) (E. coli): 44 µM
O=c1c(O)cccc(SCCc2ccccc2)c1O [Compound 704] | 4.85 | 20 | 1.8 | 4.60 | 4.84 | 21.6 | 43 | 4.70 | > 120 | 4.71 | 4.05 | 4.84 | 
CCCCCCSc1cccc(O)c(=O)c1O [Compound 840] | 4.85 |  | 1.0 | 4.14 | 4.50 | 21.5 | 142 | 4.81 | > 120 | < 3.92 | < 3.92 | 4.50 | 
CCCCNC(=O)c1cc(O)c(=O)c(O)cc1C [Compound 1039] |  |  |  |  |  |  |  |  |  |  |  |  | CC50 (in vitro; Vero CC50): > 120 µM; pEC50 (RVFV strain MP-12 [2]; [4]): 4.81; CC50 (Vero cells; African green monkey): > 120 µM; pEC50 (RVFV MP-12; Rift Valley fever virus, Vero): 5.22; pEC50 (ZIKV; Zika virus, Vero C1008, 48 h): < 3.92; pEC50 (LACV; [5]): < 3.92; MIC80 (C. neoformans): 12 µM (≈ 3.02 µg/mL); pIC50 (Human RNase H1): 3.68; pEC50 (RVFV strain MP-12 [1]; [6]): 5.05; pEC50 (RVFV strain MP-12 [1]; [7]): 5.05

Source: PMC9481026 (PLoS ONE, 2022)
